Results as given in patent publication US9593381B2, “Method and kit for detecting carbapenemase genes” (Amplidiag OY, priority 2009, dated 2017).

Tests used:
[1] = test system: Enterobacter cloacae strain harbouring IMI-2 gene; test: Antibiotic susceptibility (MIC) of the IMI-2 positive clinical strain; format: cell-based; parameters: MIC: unit not given beside the values; details: for resistance of the strain: IMI-2 positive Enterobacter cloacae strain
NDM-1 [2] = molecular target: T1, NDM-1 (Klebsiella pneumoniae, UniProt C7C422); details: cited from earlier work
T1 sequence (C7C422 29-270 limits assumed): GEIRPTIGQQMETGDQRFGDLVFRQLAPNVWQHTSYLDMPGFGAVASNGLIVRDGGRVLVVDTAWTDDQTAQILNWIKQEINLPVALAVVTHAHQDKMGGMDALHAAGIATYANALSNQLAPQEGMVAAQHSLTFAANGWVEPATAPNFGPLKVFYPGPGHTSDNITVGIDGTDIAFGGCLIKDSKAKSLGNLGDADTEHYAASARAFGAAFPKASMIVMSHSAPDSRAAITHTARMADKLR

NDM-1 [3] = molecular target: T1, NDM-1; details: metallo-β-lactamase NDM-1; cited from earlier work

Compound | resistance of the strain [1] | binding to NDM-1 compared to VIM-2 (NDM-1 [2]) | other results
trimetoprim/sulfa | not, however, resistant | – | –
CC(=O)OCC1=C(C(=O)O)N2C(=O)[C@@H](NC(=O)Cc3cccs3)[C@H]2SC1 [cephalothin] | – | tighter binding | –
CO/N=C(\C(=O)N[C@@H]1C(=O)N2C(C(=O)O)=C(COC(C)=O)CS[C@H]12)c1csc(N)n1 [cefotaxime] | – | tighter binding | –
CO/N=C(\C(=O)N[C@@H]1C(=O)N2C(C(=O)O)=C(COC(N)=O)CS[C@H]12)c1ccco1 [cefuroxime] | – | tighter binding | –
C[C@H]1[C@H](NC(=O)/C(=N\OC(C)(C)C(=O)O)c2csc(N)n2)C(=O)N1S(=O)(=O)O [aztreonam] | – | – | hydrolysis by NDM-1 (NDM-1 [3]): can hydrolyze all β-lactams except aztreonam
C[C@@H](O)[C@H]1C(=O)N2C(C(=O)O)=C(S[C@@H]3CN[C@H](C(=O)N(C)C)C3)[C@H](C)[C@H]12 [meropenem] | highly resistant | – | –
C[C@@H](O)[C@H]1C(=O)N2C(C(=O)O)=C(S[C@@H]3CN[C@H](C(=O)Nc4cccc(C(=O)O)c4)C3)[C@H](C)[C@H]12 [ertapenem] | highly resistant | – | MIC ([1]; IMI-2 positive Enterobacter cloacae strain isolated from a patient in intensive care unit): > 256
